Data reported in the NIST ThermoML archive (doi:10.1016/j.jct.2014.06.012).

Experiment: molar heat capacity at constant pressure
Conditions: 101.33 kPa, Vacuum adiabatic calorimetry

O=P([O-])([O-])[O-].[Cs+].[Mn+2] [cesium manganese(II) phosphate]
Conditions | molar heat capacity at constant pressure [J/K/mol]
5 K, Crystal 3 | 1.713
5.85 K, Crystal 3 | 2.328
6 K, Crystal 3 | 2.918
6.04 K, Crystal 3 | 3.492
6.34 K, Crystal 3 | 4.989
6.38 K, Crystal 3 | 5.654
6.59 K, Crystal 3 | 21.87
6.73 K, Crystal 3 | 13.64
6.86 K, Crystal 3 | 41.07
6.9 K, Crystal 2 | 4.573
6.9 K, Crystal 3 | 4.282
7 K, Crystal 2 | 4.623
7.01 K, Crystal 2 | 15.8
7.32 K, Crystal 2 | 9.146
7.33 K, Crystal 2 | 6.236
7.8 K, Crystal 2 | 5.986
8 K, Crystal 2 | 4.972
8.09 K, Crystal 2 | 5.321
8.15 K, Crystal 2 | 5.82
8.3 K, Crystal 2 | 5.488
8.79 K, Crystal 2 | 5.238
9 K, Crystal 2 | 5.271
9.13 K, Crystal 2 | 5.488
9.54 K, Crystal 2 | 5.404
9.95 K, Crystal 2 | 5.654
10 K, Crystal 2 | 5.579
10.3 K, Crystal 2 | 5.654
11.03 K, Crystal 2 | 5.903
11.57 K, Crystal 2 | 6.319
12.47 K, Crystal 2 | 6.818
12.55 K, Crystal 2 | 6.901
13.98 K, Crystal 2 | 7.816
15 K, Crystal 2 | 8.647
15.39 K, Crystal 2 | 8.98
16.79 K, Crystal 2 | 10.24
18.22 K, Crystal 2 | 11.6
19.65 K, Crystal 2 | 12.95
20 K, Crystal 2 | 13.29
20.79 K, Crystal 2 | 14.05
21.93 K, Crystal 2 | 15.15
23.17 K, Crystal 2 | 16.48
24.41 K, Crystal 2 | 17.81
25 K, Crystal 2 | 18.42
26.16 K, Crystal 2 | 19.68
27.91 K, Crystal 2 | 21.56
29.7 K, Crystal 2 | 23.55
30 K, Crystal 2 | 23.85
30.98 K, Crystal 2 | 25
31.52 K, Crystal 2 | 25.55
32.86 K, Crystal 2 | 26.96
34.2 K, Crystal 2 | 28.45
35 K, Crystal 2 | 29.29
36 K, Crystal 2 | 30.31
37.79 K, Crystal 2 | 32.15
39.59 K, Crystal 2 | 33.82
40 K, Crystal 2 | 34.22
41.48 K, Crystal 2 | 35.49
43.18 K, Crystal 2 | 36.82
45 K, Crystal 2 | 38.16
45.05 K, Crystal 2 | 38.3
46.84 K, Crystal 2 | 39.62
48.73 K, Crystal 2 | 41.07
50 K, Crystal 2 | 42.05
50.55 K, Crystal 2 | 42.5
52.38 K, Crystal 2 | 44
54.21 K, Crystal 2 | 45.4
56.04 K, Crystal 2 | 46.79
57.87 K, Crystal 2 | 48.08
59.7 K, Crystal 2 | 49.36
60 K, Crystal 2 | 49.65
61.53 K, Crystal 2 | 50.69
63.37 K, Crystal 2 | 52
65.2 K, Crystal 2 | 53.24
67.03 K, Crystal 2 | 54.47
68.87 K, Crystal 2 | 55.66
70 K, Crystal 2 | 56.41
70.7 K, Crystal 2 | 56.85
72.42 K, Crystal 2 | 57.92
73.98 K, Crystal 2 | 58.82
75.54 K, Crystal 2 | 59.72
76.62 K, Crystal 2 | 60.35
77.7 K, Crystal 2 | 60.98
78.93 K, Crystal 2 | 61.69
79.65 K, Crystal 2 | 62.09
80 K, Crystal 2 | 62.23
80.15 K, Crystal 2 | 62.42
81.49 K, Crystal 2 | 63.07
82.19 K, Crystal 2 | 63.43
82.8 K, Crystal 2 | 63.72
84.9 K, Crystal 2 | 64.7
87.44 K, Crystal 2 | 66.08
89.1 K, Crystal 2 | 66.98
90 K, Crystal 2 | 67.48
92.52 K, Crystal 2 | 68.77
95.06 K, Crystal 2 | 70.08
97.6 K, Crystal 2 | 71.4
99.96 K, Crystal 2 | 72.65
100 K, Crystal 2 | 72.69
102.68 K, Crystal 2 | 74.12
105.79 K, Crystal 2 | 75.84
108.49 K, Crystal 2 | 77.53
110 K, Crystal 2 | 78.18
110.3 K, Crystal 2 | 78.39
111.89 K, Crystal 2 | 79.04
112.89 K, Crystal 2 | 79.62
113.69 K, Crystal 2 | 80.09
115.29 K, Crystal 2 | 81.13
116.83 K, Crystal 2 | 82.04
118.24 K, Crystal 2 | 82.7
119.21 K, Crystal 2 | 83.23
120 K, Crystal 2 | 83.73
120.39 K, Crystal 2 | 84.89
123.17 K, Crystal 2 | 91.87
124.56 K, Crystal 2 | 100.77
125.56 K, Crystal 2 | 106.26
126.99 K, Crystal 2 | 117.73
127 K, Crystal 1 | 86.55
127 K, Crystal 2 | 86.55
128.36 K, Crystal 1 | 113.16
128.73 K, Crystal 1 | 107.76
130 K, Crystal 1 | 87.8
130.58 K, Crystal 1 | 93.29
131.88 K, Crystal 1 | 89.3
132.69 K, Crystal 1 | 88.3
133.47 K, Crystal 1 | 88.38
134.22 K, Crystal 1 | 88.8
135.31 K, Crystal 1 | 89.3
136.46 K, Crystal 1 | 89.88
137.83 K, Crystal 1 | 90.46
138.61 K, Crystal 1 | 90.79
139.44 K, Crystal 1 | 91.13
140 K, Crystal 1 | 91.54
140.05 K, Crystal 1 | 91.46
141.84 K, Crystal 1 | 92.21
143.65 K, Crystal 1 | 92.87
146.58 K, Crystal 1 | 93.95
149.52 K, Crystal 1 | 95.03
150 K, Crystal 1 | 95.37
152.45 K, Crystal 1 | 96.2
155.39 K, Crystal 1 | 97.36
158.13 K, Crystal 1 | 98.36
160 K, Crystal 1 | 99.03
160.88 K, Crystal 1 | 99.36
163.62 K, Crystal 1 | 100.44
166.37 K, Crystal 1 | 101.44
168.91 K, Crystal 1 | 102.35
170 K, Crystal 1 | 102.68
171.45 K, Crystal 1 | 103.27
174.38 K, Crystal 1 | 104.26
177.32 K, Crystal 1 | 105.26
180 K, Crystal 1 | 106.18
180.25 K, Crystal 1 | 106.26
183.19 K, Crystal 1 | 107.26
186.12 K, Crystal 1 | 108.17
189.06 K, Crystal 1 | 109.17
190 K, Crystal 1 | 109.58
191.79 K, Crystal 1 | 110.08
194.53 K, Crystal 1 | 111
197.27 K, Crystal 1 | 111.91
199.58 K, Crystal 1 | 112.58
200 K, Crystal 1 | 112.74
201.38 K, Crystal 1 | 113.08
203.92 K, Crystal 1 | 113.83
206.38 K, Crystal 1 | 114.57
209.38 K, Crystal 1 | 115.65
210 K, Crystal 1 | 115.82
212.32 K, Crystal 1 | 116.57
215.39 K, Crystal 1 | 117.48
218.18 K, Crystal 1 | 118.31
219.88 K, Crystal 1 | 118.73
220 K, Crystal 1 | 118.81
221.58 K, Crystal 1 | 119.23
224.09 K, Crystal 1 | 119.98
226.59 K, Crystal 1 | 120.73
229.5 K, Crystal 1 | 121.56
230 K, Crystal 1 | 121.56
232.41 K, Crystal 1 | 122.39
235.32 K, Crystal 1 | 123.3
238.23 K, Crystal 1 | 124.22
240 K, Crystal 1 | 124.3
